Columns and labels:
[1] = target: T1, Type-2 angiotensin II receptor (Homo sapiens, UniProt P50052); assay type: cell-based; conditions: cho-k1; note: in other assays of this panel Not Active means under 50% inhibition at 10 µM
T1 sequence (P50052 whole entry): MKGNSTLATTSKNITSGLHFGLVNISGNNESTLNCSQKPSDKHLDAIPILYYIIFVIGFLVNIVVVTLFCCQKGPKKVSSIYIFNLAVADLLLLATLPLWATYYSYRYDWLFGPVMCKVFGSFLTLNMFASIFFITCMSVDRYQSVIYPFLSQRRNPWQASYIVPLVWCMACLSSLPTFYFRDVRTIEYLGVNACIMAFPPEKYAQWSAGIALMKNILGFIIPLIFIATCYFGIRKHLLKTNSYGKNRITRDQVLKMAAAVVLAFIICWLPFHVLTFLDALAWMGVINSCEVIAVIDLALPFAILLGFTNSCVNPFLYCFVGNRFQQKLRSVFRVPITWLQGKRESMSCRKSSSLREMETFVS

[2] = target: Beta-1 adrenergic receptor (Homo sapiens, UniProt P08588); assay: DRUGMATRIX: Adrenergic beta1 radioligand binding (ligand: [125I] Cyanopindolol); assay type: cell membranes, CHO-K1, Membrane; conditions: cho-k1; Not Active = under 50% inhibition at 10 µM
[3] = DRUGMATRIX: Phorbol Ester radioligand binding (ligand: [3H] PDBu); assay type: cell membranes, Mus musculus, ICR, Brain, Membrane; conditions: Not Active = under 50% inhibition at 10 µM
Cytochrome P450 2C9 = Cytochrome P450 2C9 (Homo sapiens, UniProt P11712); conditions: bti-tn-5b1-4; note: in other assays of this panel Not Active means under 50% inhibition at 10 µM
[4] = DRUGMATRIX: Interleukin IL-1 radioligand binding (ligand: [125I] interleukin 1beta); assay type: cell membranes, Membrane; conditions: nih3t3; Not Active = under 50% inhibition at 10 µM
Calcitonin receptor = target: T2, Calcitonin receptor (Homo sapiens, UniProt P30988); assay type: cell membranes, Membrane; conditions: t47d; note: in other assays of this panel Not Active means under 50% inhibition at 10 µM
T2 sequence (P30988 whole entry): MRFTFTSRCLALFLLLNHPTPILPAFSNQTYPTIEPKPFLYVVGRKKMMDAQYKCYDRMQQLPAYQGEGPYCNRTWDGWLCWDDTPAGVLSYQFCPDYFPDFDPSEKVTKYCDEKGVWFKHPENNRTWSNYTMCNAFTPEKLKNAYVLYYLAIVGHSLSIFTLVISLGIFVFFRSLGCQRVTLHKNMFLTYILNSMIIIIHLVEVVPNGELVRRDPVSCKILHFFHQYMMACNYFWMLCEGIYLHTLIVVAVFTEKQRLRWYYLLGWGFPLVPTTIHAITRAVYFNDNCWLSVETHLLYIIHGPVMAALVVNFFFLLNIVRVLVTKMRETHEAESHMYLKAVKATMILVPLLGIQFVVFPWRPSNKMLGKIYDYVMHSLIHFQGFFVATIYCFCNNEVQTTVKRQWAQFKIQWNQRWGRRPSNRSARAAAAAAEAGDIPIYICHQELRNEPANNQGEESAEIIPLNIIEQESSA

[5] = target: T3, 5-hydroxytryptamine receptor 2C (Homo sapiens, UniProt P28335); assay: DRUGMATRIX: Serotonin (5-Hydroxytryptamine) 5-HT2C radioligand binding (ligand: [3H] Mesulergine); assay type: cell membranes, CHO-K1, Membrane; conditions: cho-k1; Not Active = under 50% inhibition at 10 µM
T3 sequence (P28335 whole entry): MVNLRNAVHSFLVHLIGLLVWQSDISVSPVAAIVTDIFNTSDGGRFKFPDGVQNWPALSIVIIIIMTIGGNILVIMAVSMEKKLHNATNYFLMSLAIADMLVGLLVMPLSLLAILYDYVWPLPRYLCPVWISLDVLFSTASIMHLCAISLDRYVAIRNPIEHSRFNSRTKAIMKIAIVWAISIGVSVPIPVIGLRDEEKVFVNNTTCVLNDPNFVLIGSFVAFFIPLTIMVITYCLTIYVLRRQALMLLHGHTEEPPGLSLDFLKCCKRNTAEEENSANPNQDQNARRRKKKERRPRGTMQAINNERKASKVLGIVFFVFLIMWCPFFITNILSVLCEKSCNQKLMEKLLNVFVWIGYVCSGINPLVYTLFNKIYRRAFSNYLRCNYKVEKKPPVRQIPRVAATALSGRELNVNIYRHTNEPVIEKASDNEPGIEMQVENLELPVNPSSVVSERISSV

Thromboxane-A synthase = target: T4, Thromboxane-A synthase (Homo sapiens, UniProt P24557); assay: biochemical; assay type: tissue-based, Platelet; conditions: platelet;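 note: enzyme inhibition assay with PGH2 supplied as substrate; in other assays of this panel Not Active means under 50% inhibition at 10 µM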
T4 sequence (P24557 whole entry): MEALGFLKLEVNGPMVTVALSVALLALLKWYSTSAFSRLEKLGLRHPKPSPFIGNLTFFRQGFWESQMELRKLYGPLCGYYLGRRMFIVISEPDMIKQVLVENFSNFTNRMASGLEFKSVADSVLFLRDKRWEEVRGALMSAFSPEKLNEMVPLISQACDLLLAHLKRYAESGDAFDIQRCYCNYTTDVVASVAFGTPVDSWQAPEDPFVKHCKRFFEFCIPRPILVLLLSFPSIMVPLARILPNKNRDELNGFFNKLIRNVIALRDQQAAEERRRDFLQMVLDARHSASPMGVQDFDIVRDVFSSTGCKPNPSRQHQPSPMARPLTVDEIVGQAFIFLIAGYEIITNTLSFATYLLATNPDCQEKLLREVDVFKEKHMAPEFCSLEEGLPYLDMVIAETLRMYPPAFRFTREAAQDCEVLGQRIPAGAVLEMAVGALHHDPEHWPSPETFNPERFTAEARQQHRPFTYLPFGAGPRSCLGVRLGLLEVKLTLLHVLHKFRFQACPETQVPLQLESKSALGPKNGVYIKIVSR

Beta-1 adrenergic receptor, sequence (P08588 whole entry): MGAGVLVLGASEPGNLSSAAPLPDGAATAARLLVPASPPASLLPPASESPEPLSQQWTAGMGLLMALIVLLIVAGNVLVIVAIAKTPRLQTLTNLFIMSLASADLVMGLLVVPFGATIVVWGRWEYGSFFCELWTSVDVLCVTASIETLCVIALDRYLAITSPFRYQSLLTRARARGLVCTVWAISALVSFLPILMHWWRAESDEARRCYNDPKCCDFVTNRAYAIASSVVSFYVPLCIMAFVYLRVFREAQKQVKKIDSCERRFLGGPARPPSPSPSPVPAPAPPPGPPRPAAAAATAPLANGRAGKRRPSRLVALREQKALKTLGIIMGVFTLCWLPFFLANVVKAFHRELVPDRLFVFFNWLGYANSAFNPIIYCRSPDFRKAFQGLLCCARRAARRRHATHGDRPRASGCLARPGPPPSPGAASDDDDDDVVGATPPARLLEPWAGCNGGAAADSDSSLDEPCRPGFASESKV
Cytochrome P450 2C9, sequence (P11712 whole entry): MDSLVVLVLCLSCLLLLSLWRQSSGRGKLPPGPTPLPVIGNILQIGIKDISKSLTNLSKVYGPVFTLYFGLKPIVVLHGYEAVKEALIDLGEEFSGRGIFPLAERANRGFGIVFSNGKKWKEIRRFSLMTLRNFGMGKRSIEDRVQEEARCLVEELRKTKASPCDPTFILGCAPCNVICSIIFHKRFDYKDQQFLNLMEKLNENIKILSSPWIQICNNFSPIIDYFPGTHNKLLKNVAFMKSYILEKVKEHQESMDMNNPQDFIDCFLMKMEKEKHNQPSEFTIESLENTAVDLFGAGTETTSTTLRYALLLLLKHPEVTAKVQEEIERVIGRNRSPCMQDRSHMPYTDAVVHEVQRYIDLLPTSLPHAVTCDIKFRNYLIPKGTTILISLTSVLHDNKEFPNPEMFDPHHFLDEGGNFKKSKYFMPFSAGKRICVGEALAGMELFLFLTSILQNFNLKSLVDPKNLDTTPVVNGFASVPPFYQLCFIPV

POLYVINYL ALCOHOL
Not Active: IC50 [1] | Ki [1] | IC50 [2] | Ki [2] | IC50 [3] | Ki [3] | IC50 (Cytochrome P450 2C9) | Ki (Cytochrome P450 2C9) | IC50 [4] | Ki [4] | IC50 (Calcitonin receptor) | Ki (Calcitonin receptor) | IC50 [5] | Ki [5] | IC50 (Thromboxane-A synthase) | Ki (Thromboxane-A synthase)
